# Test results published in PMC9525908, “α-Crystallin chaperone mimetic drugs inhibit lens γ-crystallin aggregation: Potential role for cataract prevention” (The Journal of Biological Chemistry, 2022).
# Entries after “also recorded” stand apart in the source; their conditions may differ.
# Assays:
# HγD-ox [1] = target: T1, HγD-ox (Homo sapiens, UniProt P07320); assay: Thermal unfolding (Tm) of oxidized HγD; format: biochemical; details: 100 μM agent, 360/320 nm ratio; 68 ± 0.07 °C without agent
# T1 construct: made in house; host or cells: Escherichia coli BL21(DE3) pLysS, pET3d vector
# T1 sequence (P07320 1-174): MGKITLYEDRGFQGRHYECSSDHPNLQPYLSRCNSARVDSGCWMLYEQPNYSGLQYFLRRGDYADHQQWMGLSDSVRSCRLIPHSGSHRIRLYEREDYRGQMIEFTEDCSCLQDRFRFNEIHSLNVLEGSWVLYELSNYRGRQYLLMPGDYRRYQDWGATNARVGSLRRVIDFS
# Description: (§1) In postsubmission experiments, we attempted to find mechanistic clues relevant to the use of an H2O2 oxidation step prior to the thermal stress used during the initial drug screen. For this reason, we did a comparative study of oxidized (HγD-ox) versus native HγD (HyD-nat), hypothesizing that bis-ANS would both act like the drugs and provide information on the role of exposed hydrophobicity ([40]). HγD was oxidized in diethylenetriaminepentaacetic acid […] phosphate buffer to facilitate hydroxyl radical formation and protein damage, followed by dialysis against DTPA-treated buffer to eliminate the known proaggregating effects of divalent metals ([32]) in the subsequent steps. […] Overall protective effects were more pronounced for the oxidized than nonoxidized form of HγD. […] In the hope to obtain clues on the impact of bis-ANS, drugs C, G, and M on protein aggregation status, native PAGE was performed (Fig. 3G). Polymers greater than 250 kD are present in unheated HγD-nat but only the size of 75 to 100 kD in HγD-ox. […] Other techniques will be needed to assess the relationship between drugs and aggregate size.
# Thermal denaturation study was monitored using fluorescence spectroscopy. Protein solutions (10 μM) in the presence and absence of drugs or bis-ANS (100 μM) were heated continuously from 30 to 95 °C, and the fluorescence data were collected every 5 °C after 1 min equilibration at the given temperature. Unfolding data were fit to Greene and Pace’s two-state model ([82]) using GraphPad Prism software (GraphPad Software, Inc).
# HγD-ox [2] = target: T1, HγD-ox; assay: Turbidity (600 nm) of oxidized HγD heated 10 min at 72 °C; format: biochemical; details: 1.4 mg/ml with DTPA, 100 and 500 μM bis-ANS, 100 μM drug C, 500 μM drug M
# Description: as §1
# 15N-labeled HyD = target: T2, 15N-labeled HyD (Homo sapiens, UniProt P07320); assay: NMR HSQC of 15N-labeled HyD with drug C; format: binding; details: 100 μM protein, 600 μM drug C, 5% DMSO
# T2 sequence (P07320 1-174): T1 sequence (P07320 1-174)
# HγD = target: T3, HγD (Homo sapiens, UniProt P07320); details: 600 μM drug C, tested by an outside laboratory; cited from earlier work
# T3 construct: made in house; host or cells: E. coli BL21(DE3) pLysS, pET3d vector
# T3 sequence (P07320 1-174): T1 sequence (P07320 1-174)
compound,measurement,setting,value
"Cc1cc(C(C#N)c2ccc(Cl)cc2)c(Cl)cc1NC(=O)c1cc(I)cc(I)c1O (stereo not drawn) [drug C, Closantel]",Tm of HγD-ox,HγD-ox [1],increased all Tm values to the maximum value
same,Effect on aggregation/turbidity of HγD-ox,HγD-ox [2],strongly suppressed
same,"HSQC spectra, drug-treated versus control sample",15N-labeled HyD,no significant differences
same,Effect on heat-mediated aggregation of HγD,HγD,worsening
"CC(C)=CCC[C@]1(C)C=Cc2c(O)c3c(c(CC=C(C)C)c2O1)O[C@]12C(=C[C@@H]4C[C@H]1C(C)(C)O[C@@]2(C/C=C(/C)C(=O)O)C4=O)C3=O [drug G, Gambogic acid]",Tm of HγD-ox,HγD-ox [1],increased all Tm values to the maximum value
"O=C(O)CCCCCCCCCCCC[C@@H]1C=CCC1 [drug M, Chaulmoogric acid]",Effect on aggregation/turbidity of HγD-ox,HγD-ox [2],strongly suppressed; also recorded: protected oxidized HγD
